{
  "source": "paper PMC9673926",
  "about": "“Nucleotide binding as an allosteric regulatory mechanism for Akkermansia muciniphila β-N-acetylhexosaminidase Am2136” (Gut Microbes, 2022)",
  "key": {"Am2136 E649A [1]": {"biological_target": "T1, Am2136 E649A (Akkermansia muciniphila, UniProt B2UPR7, E649A)", "T1 sequence (B2UPR7 20-756 E649A)": "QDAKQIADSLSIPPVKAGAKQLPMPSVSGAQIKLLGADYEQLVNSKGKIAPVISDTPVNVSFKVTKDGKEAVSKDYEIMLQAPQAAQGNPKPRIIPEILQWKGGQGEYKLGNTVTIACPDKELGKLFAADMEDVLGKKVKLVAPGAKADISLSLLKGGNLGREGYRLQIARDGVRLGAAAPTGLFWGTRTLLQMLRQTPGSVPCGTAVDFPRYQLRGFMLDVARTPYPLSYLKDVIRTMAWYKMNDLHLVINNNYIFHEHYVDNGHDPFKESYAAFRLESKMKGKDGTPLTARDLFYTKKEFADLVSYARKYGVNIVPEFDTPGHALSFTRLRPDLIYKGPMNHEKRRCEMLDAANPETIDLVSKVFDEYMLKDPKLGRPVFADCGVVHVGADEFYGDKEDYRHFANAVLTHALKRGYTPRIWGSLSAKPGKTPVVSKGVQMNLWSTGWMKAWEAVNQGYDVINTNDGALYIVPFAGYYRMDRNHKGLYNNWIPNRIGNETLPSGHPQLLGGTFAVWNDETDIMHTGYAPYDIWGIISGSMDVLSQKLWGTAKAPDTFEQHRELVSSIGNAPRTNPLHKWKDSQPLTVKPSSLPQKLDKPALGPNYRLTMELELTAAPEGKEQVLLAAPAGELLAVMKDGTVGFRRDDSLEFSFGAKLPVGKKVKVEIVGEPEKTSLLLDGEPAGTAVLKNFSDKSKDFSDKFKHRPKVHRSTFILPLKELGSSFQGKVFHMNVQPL", "assay": "GDP regulated enzyme activity assay, mutant", "details": "1 mM GDP, substrate pNP-β-GlcNAc"}, "Am2136 R592A": {"biological_target": "T2, Am2136 R592A (Akkermansia muciniphila, UniProt B2UPR7, R592A)", "T2 sequence (B2UPR7 20-756 R592A)": "T1 sequence (B2UPR7 20-756 E649A) with R573A, A630E", "assay": "GDP regulated enzyme activity assay, mutant", "details": "1 mM GDP, substrate pNP-β-GlcNAc"}, "Am2136 E649A [2]": {"biological_target": "T1, Am2136 E649A", "assay": "Nucleotide binding affinity by intrinsic fluorescence, mutant", "set-up": "The coding region (residue Q20-L756) of Am2136 without signal peptide was based on UniProt; 6XHis (N); made in house; host or cells: E. coli BL21 (DE3)", "procedure": "(§1) The nucleotide binding ability was determined on Fluorescence Spectrometer Duetta (HORIBA) by measuring the change of peak intensity. The fluorescence was excited at 286 nm and emitted at 336 nm. And the measurement was processed under 400 V voltage with 2.5 nm excitation slit and 5 nm emission slit. The 120 μL reaction mixture contains 0–550 μM nucleotide, 5 μM proteins, 25 mM Tris pH 8.0 and 150 mM NaCl. The sample was incubated at 4°C for 5 min before testing."}, "Am2136 Y327F+Y331F": {"biological_target": "T3, Am2136 Y327F+Y331F (Akkermansia muciniphila, UniProt B2UPR7, Y327F/Y331F)", "T3 sequence (B2UPR7 20-756 Y327F/Y331F)": "T1 sequence (B2UPR7 20-756 E649A) with Y308F, Y312F, A630E", "assay": "Nucleotide binding affinity by intrinsic fluorescence, mutant", "set-up": "The coding region (residue Q20-L756) of Am2136 without signal peptide was based on UniProt; 6XHis (N); made in house; host or cells: E. coli BL21 (DE3)", "procedure": "as §1"}},
  "note": "Numbering of substitutions follows the chain as printed.",
  "data": [
    {"smiles": "Nc1nc2c(ncn2[C@@H]2O[C@H](COP(=O)(O)OP(=O)(O)O)[C@@H](O)[C@H]2O)c(=O)[nH]1", "note": "[GDP]", "values": [
      {"measurement": "Vmax", "setting": "Am2136 E649A [1]", "result": "453 ± 6", "unit": "µmol/min"},
      {"measurement": "Vmax", "setting": "Am2136 R592A", "result": "442 ± 5", "unit": "µmol/min"},
      {"measurement": "Kd", "setting": "Am2136 E649A [2]", "result": 236, "unit": "µM"},
      {"measurement": "Kd", "setting": "Am2136 Y327F+Y331F", "result": "175 ± 13.7", "unit": "µM"}
    ]}
  ]
}
